# PubChem BioAssay (NCI)
# Where “and” joins values, the source holds several entries; their conditions need not be identical. Identical values can stand only once.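 A five-concentration, 48-hour dose response in 96-well plates underlies each endpoint, interpolated linearly between surrounding concentrations. GI50 = concentration required for 50% inhibition of growth. TGI is the concentration that stops growth completely.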
# Assays:
# Experiment in all cases: NCI tumour cell line growth inhibition, 48 h
# HOP-18 NSCLC = test system: HOP-18 NSCLC
# XF 498 CNS = test system: XF 498 CNS
# RXF-631 renal = test system: RXF-631 renal
# SNB-78 CNS = test system: SNB-78 CNS
# DLD-1 colon = test system: DLD-1 colon
# DMS 114 small cell lung = test system: DMS 114 small cell lung
# LXFL 529 NSCLC = test system: LXFL 529 NSCLC
# MDA-N = test system: MDA-N
# P388 leukemia = test system: P388 leukemia
# P388/ADR leukemia = test system: P388/ADR leukemia
# SN12K1 renal = test system: SN12K1 renal
SMILES,TGI (HOP-18 NSCLC) [µM],TGI (XF 498 CNS) [µM],TGI (RXF-631 renal) [µM],TGI (SNB-78 CNS) [µM],TGI (DLD-1 colon) [µM],TGI (DMS 114 small cell lung) [µM],TGI (LXFL 529 NSCLC) [µM],TGI (MDA-N),also measured
COc1ccc(/C=C2\C(=O)N(NC(C)=O)c3ccccc32)cc1,> 100,> 100,> 100,> 100,> 100,> 100,–,–,–
COc1ccc2c(C(=O)O)cc3ccccc3c2c1OC,28.9,29.2,–,33.4,> 100,38,30.9,–,–
O=[N+]([O-])c1ccc(-c2ccc(C3=Nn4c(CNc5ccccc5Cl)nnc4SC3)o2)cc1,–,> 100,–,> 100,> 100,–,> 100,–,–
CC(C)Cc1ccc(C(C)/C=C2\CCC(CN(C)C)C2=O)cc1 (stereo unspecified),32.2,36.5,–,36.3,40,46.1,22.6,22.2 µM,–
Cn1c(=O)c2nc3sc4c(n3c2n(C)c1=O)C(=O)c1ccccc1C4=O,> 100,> 100,> 100,> 100,> 100,> 100,> 100,> 100 µM,–
CCOC(=O)/C(=C\c1cccc(C)c1)C(C)=O,–,–,–,–,–,–,–,31.4 µM,–
O=C(NCCc1ccccc1)C1C(=O)C(=O)N(CCc2ccccc2)C1=O (stereo unspecified),–,> 100,> 100,> 100,> 100,–,> 100,–,–
O=C1c2ccccc2C(=O)c2c(NC3CCCCC3)ccc(Nc3ccc(S(=O)(=O)O)cc3)c21,–,–,–,–,–,–,–,> 100 µM,–
c1ccc(C(c2ccccc2)c2ccccn2)cc1,> 100,> 100,> 100,> 100,> 100,> 100,–,–,–
CCOC(=O)C1=C(NC)OCC1=O,–,> 100,> 100,> 100,–,> 100,> 100,–,–
COc1cc(/C=C2\NC(=O)C(Cc3cc(OC)c(OC)c(C)c3OC)N(C(C)=O)C2=O)c(OC)c(C)c1OC (stereo unspecified),99.6,–,–,–,> 100,> 100,> 100,–,–
O=NN(CCCl)C(=O)NC1CCC(CC(=O)O)CC1 (stereo unspecified),> 100,> 100,–,> 100,> 100,> 100,> 100,–,TGI (P388 leukemia): > 62.3 µM and 16.7 µM; TGI (P388/ADR leukemia): > 100 µM and 13.7 µM; TGI (SN12K1 renal): > 100 µM
CC(=O)Oc1c(C(=O)[O-])cc(C(C)C)cc1C(C)C.CC(=O)Oc1c(C(=O)[O-])cc(C(C)C)cc1C(C)C.CC(=O)Oc1c(C(=O)[O-])cc(C(C)C)cc1C(C)C.CC(=O)Oc1c(C(=O)[O-])cc(C(C)C)cc1C(C)C.[Cu+2].[Cu+2],–,–,–,–,–,–,–,33.4 µM,GI50 (MDA-N): 18.8 µM
O=C1C2C3C=CC(C2C(=O)N1CO)C1C2C(=O)N(CO)C(=O)C2C31 (stereo unspecified),76.7,> 100,> 100,> 100,> 73.7,> 58.6,> 100,–,–
CC(=O)[CH-]C(=O)c1ccccc1.[C-]#[O+].[C-]#[O+].[Ir],> 100,–,–,–,> 100,–,–,–,GI50 (HOP-18 NSCLC): > 100 µM; GI50 (DLD-1 colon): > 100 µM
CCCCCCCCCCCC[C@@H](O)[C@H]1CC[C@H]([C@H](O)CC[C@H](O)[C@@H]2CC[C@@H](CCCCCCCC3=C[C@H](C)OC3=O)O2)O1,–,–,–,–,–,–,–,> 50 µM,GI50 (MDA-N): > 50 µM
O=C1N[C@@H]2CCCC[C@@H]2C12CCCCC2,> 100,> 100,> 100,> 100,> 100,–,> 100,–,–
O=C(O)CN(CCN(CC(=O)O)CC(=O)O)CC(=O)O.[Mn+2],–,–,–,–,–,–,–,> 100 µM,GI50 (MDA-N): > 100 µM
CC(=O)Nc1ccc(C2CC(c3ccc([N+](=O)[O-])cc3)=Nc3ccccc3S2=O)cc1 (stereo unspecified),> 100,55.8,–,–,34.5,69.1,34.6,–,–
O=C1NC(=O)C2C(=O)NC(=O)C1C2Cc1ccco1 (stereo unspecified),–,> 100,–,> 100,> 100,> 100,–,–,–

SMILES,TGI (HOP-18 NSCLC) [µM],TGI (XF 498 CNS) [µM],TGI (RXF-631 renal) [µM],TGI (SNB-78 CNS) [µM],TGI (DLD-1 colon) [µM],TGI (DMS 114 small cell lung) [µM],TGI (LXFL 529 NSCLC) [µM],TGI (MDA-N),also measured
COc1cc(OC)c(OC)cc1/C=C/c1nc2ccccc2s1,–,–,–,–,–,–,–,> 100 µM,–
CC1NOC(=O)C1N=Nc1ccc(Cl)cc1Cl (stereo unspecified),50.4,45,> 100,69.2,> 100,53.9,45.3,–,–
CCOC(=O)c1ccc(N=Nc2ccc(N(CCC#N)CCC#N)cc2C)cc1,> 100,–,> 100,> 100,> 100,> 100,> 100,–,–
CC(=O)O[C@H]1CC2C(C3CC[C@H](C(C)CCC(=O)O)[C@]31C)[C@H](OC(C)=O)C[C@@H]1CC3(CC[C@]21C)OOC1(CCC(C)CC1)OO3 (stereo partly specified),–,–,–,–,–,–,–,19.9 µM and 15 µM,–
OCC1CC[N-]CC1.OCC1CC[N-]CC1.[Cl][Pt+2]([Cl])([Cl])[Cl],–,–,–,–,–,–,–,–,GI50 (MDA-N): 28.9 µM
NC(N)=NCCCC(NCc1c2ccccc2nc2ccccc12)C(=O)O (stereo unspecified),–,–,–,–,50.5,79.4,> 100,> 100 µM,–
COC(=O)C1=C(C(=O)OC)C2(c3ccccc3)OC1(c1ccccc1)c1cc3ccccc3cc12,2.45,–,4.69,–,3.46,–,2.63,–,–
Cc1ccc(S(=O)(=O)NCCCCC(N)C(=O)O)cc1 (stereo unspecified),–,–,–,–,–,–,–,> 100 µM,–
COc1ccc2nc(NC(=O)C(=O)CC(=O)c3ccc([N+](=O)[O-])cc3)sc2c1,–,> 100,> 100,–,> 100,> 100,> 100,–,–
OC(c1ccccc1Br)(c1ccccc1Br)C(F)(F)F,> 100,38.2,–,–,97.6,38.2,> 100,–,–
CCOC(=O)C1(C)CCC(C(C(=O)O)C(=O)O)CC1=O (stereo unspecified),> 100,–,> 100,> 100,> 100,> 100,> 100,–,–
COC12C(COC(=O)NCCO)C3=C(C(=O)C(C)=C(N)C3=O)N1CC1NC12 (stereo unspecified),–,–,–,–,–,–,–,> 264 µM,–
N#CC1CC(c2ccccc2)Nc2cc(Cl)ccc2N1 (stereo unspecified),> 100,92,–,> 100,> 100,97.3,> 100,–,–
CC(=O)OCC(=O)[C@@]1(O)CC[C@H]2[C@@H]3C[C@H](C)C4=CC(=O)C=C[C@]4(C)[C@@]3(F)[C@@H](O)C[C@@]21C,–,> 100,> 100,> 100,> 100,> 100,–,–,–
CCc1cccc(CC)c1NC(=O)/C(Cl)=C(/Cl)C(=O)O,49.5,46.5,–,65.8,49.1,40.9,20.9,–,–
COc1cc(/C=C/c2csnn2)cc(OC)c1OC,> 100,> 100,–,> 100,> 100,> 100,> 100,–,–
N#Cc1ccc(Sc2nc3ccccc3[nH]2)cc1,> 100,–,–,> 100,> 100,> 100,> 100,–,–
[O]=[V]([OH])([OH])[OH],–,–,–,–,–,–,–,> 100 µM,GI50 (MDA-N): 94.6 µM
Nc1nc(=S)c2c(ncn2CCO)[nH]1,> 100,–,–,> 100,> 100,> 100,> 100,–,–
